Laboratory results published in patent US20240024479A1, “NK CELLS OR T CELLS EXPRESSING CHIMERIC HEMATOPOIETIC GROWTH FACTOR RECEPTORS AND METHODS OF USE” (The United States of America, as represented by the …, priority 2020, published 2024).

Legend:
c-MPL+ NK-92 cells = assay: Flow cytometry of cell signaling and anti-apoptotic proteins, c-MPL+ NK-92; assay type: cell-based, human
Description: Staining was performed in phosphate-buffered saline (PBS) with 2% FBS and 2 mM EDTA and analyzed on a BD LSRFortessa machine. If intracellular staining was required, BD cytofix/cytoperm (BD Biosciences) was applied for cell fixation and permeabilization after surface staining. The apoptosis assay was performed using PE annexinV apoptosis detection kit (BD Biosciences). The data were analyzed on FlowJo software.
Expression of target proteins was evaluated afterward by flow cytometry as described above.

Raji tumor cells = assay: Flow cytometry based killing assay, c-MPL+ NK-92 effectors vs Raji; assay type: cell-based, human; details: c-MPL+ NK-92 exposed to TPO+LD IL-2, 4 hours
Description: (§1) The target cells were labeled with 1 μM cell trace violet in some experiments (Thermo Fisher Scientific). The effector and target cells were incubated together in duplicate wells at specific E:T ratio in complete medium without cytokines for 4 hours (total cell number: 200,000 to 250,000 per well in 96-well plate). 7-AAD and Sphero AccuCount Fluorescent particles (Spherotech, IL) were added before analysis by flow cytometry. The absolute number of viable 7-AAD negative target cells was calculated according to bead numbers added (Cooper et al., Leukemia 32:1970-1983, 2018). The percentage of dead cells was calculated relative to target cell only control wells.

parental NK-92 cell line = assay: In vitro cell expansion of parental NK-92; assay type: cell-based, human; details: EPO or TPO administration
Description: In vitro cell expansion cultures: The NK-92 (5×10^4 cell/ml) and KHYG-1 (1×10^4 cell/ml) cells were cultured in 1 ml of complete medium in 24-well plate. […] Trypan blue negative cells were counted every other day. […] The short-term cell expansion assay was performed in similar fashion, except cells were initially cultured without IL-2 overnight before adding different cytokines and enumerating the cell number. For competitive primary NK and T cell expansion assay, all transduced cells (5×10^5/ml for NK and 4×10^5/ml for T cell) containing a mixture of GFP positive (transduced) and GFP negative (untransduced) cells were plated on day 0. Fresh medium with appropriate supplements was replaced every other day for NK cells and only on day 3 for T cell experiment. Viable cells were counted and percentage of GFP^+ cells was acquired on indicated days (NK: day 4 and 6, T: day 3 and 6). The fold change of GFP^+ cells was calculated by multiplying the counted cell number times the fraction GFP^+.

GFP+ MPL+ cells = assay: Persistence of transduced human NK cells in immunodeficient mice; assay type: in vivo, NSG mice; details: for average percentage of GFP+ MPL+ cells amongst the recovered human cells: TPO 50 μg/kg daily, 4 days, about 10% of injected cells
Source text: Both populations were then mixed at a 1:1 ratio immediately before injection intravenously into NSG mice (such that GFP^+ MPL^+ cells and GFP^+ CD34^+ cells each constituted ˜10% of the mixed cells). Each mouse received 2.2×10^7 total human NK cells. […] MPL-transduced NK cells were identified as GFP^+ MPL^+ while CD34-transduced NK cells were gated as GFP^+ CD34^+. The frequency of transduced cells is presented (FIG. 14A) as a percentage of MHC-I^+ human cells isolated from organs or (FIG. 14B) as percent of total live mononuclear cells recovered from each organ. The legend applies to both FIGS. 14A and 14B. Data from 9 mice per group are shown with NK cells derived from 3 human blood donors. Data was normalized to account for unequal transduction or subset mixing before injection using the equation: […]
Persistence of transduced human NK cells in immunodeficient mice: NK cells from human PBMC were transduced with matched lentiviral vectors encoding GFP/MPL or GFP/CD34 then mixed at a 1:1 ratio and injected intravenously into NSG mice (2.2×10^7 total cells/mouse). […] After euthanasia, blood was drawn by cardiac puncture, bone marrow was harvested by flushing the tibia, and spleen, liver, and lung fragments were processed by grinding over 70 μm nylon mesh. Blood, bone marrow, lung, and spleen samples received 1-2 rounds of 5 minute incubations with ACK lysis buffer (Quality biological). Liver samples were purified by centrifugation over 35% Percoll (Sigma) solution in RPMI. The presence of transduced human cells was quantified in various organs via flow cytometry using antibodies to human MHC class I (W6/32) (BioLegend), c-MPL (1.6.1), CD34 (581) (BD BioSciences), GFP-fluorescence, and Live/Dead Aqua viability dye (Thermo Fisher).

GFP+ c-MPL+ NK cells = assay: Competitive expansion of c-MPL-transduced primary NK cells; assay type: cell-based, human; details: day 6
Description: (§2) In vitro cell expansion cultures: The NK-92 (5×10^4 cell/ml) and KHYG-1 (1×10^4 cell/ml) cells were cultured in 1 ml of complete medium in 24-well plate. […] Trypan blue negative cells were counted every other day. […] For competitive primary NK and T cell expansion assay, all transduced cells (5×10^5/ml for NK and 4×10^5/ml for T cell) containing a mixture of GFP positive (transduced) and GFP negative (untransduced) cells were plated on day 0. Fresh medium with appropriate supplements was replaced every other day for NK cells and only on day 3 for T cell experiment. Viable cells were counted and percentage of GFP^+ cells was acquired on indicated days (NK: day 4 and 6, T: day 3 and 6). The fold change of GFP^+ cells was calculated by multiplying the counted cell number times the fraction GFP^+.

c-MPL transduced T cells = assay: Competitive expansion of c-MPL-transduced primary T cells; assay type: cell-based, human
Description: as §2

GFP+ MPL+ NK cells = assay: Degranulation assay and cytokine production, c-MPL-transduced primary NK cells with K562; assay type: cell-based, human
Description: To examine degranulation, cells were washed after two hours and stained with anti-CD107a (H4A3) (BioLegend). To assay cytokine production, GolgiPlug and GolgiStop (BD Biosciences) were added at manufacturer's recommended concentrations within the first hour of co-culture with K562. After 4 hours, cells were washed and stained for cell surface markers, then stained intracellularly with mAb recognizing TNF-α (Mab 11) and IFN-γ (B27) (BD Biosciences).

K562 = assay: Flow cytometry based killing assay, c-MPL+ NK-92 effectors vs K562; assay type: cell-based, human; details: c-MPL+ NK-92 with TPO administration
Description: as §1

GFP+ MPL+ population = assay: Parallel in vitro cultures of the mixed transduced NK cells; assay type: cell-based, human; details: only TPO
721.221 = assay: Flow cytometry based killing assay, c-MPL+ NK-92 effectors vs 721.221; assay type: cell-based, human; details: c-MPL+ NK-92 with TPO administration
Description: as §1

## TPO: recombinant human thrombopoietin, ligand of the c-MPL receptor; 50 ng/ml rhTPO (R&D)
c-MPL+ NK-92 cells; TPO added to LD IL-2
  pS6 expression: 11.84
c-MPL+ NK-92 cells; TPO combined with LD IL-2
  STAT5 phosphorylation, additivity: No additive effects
c-MPL+ NK-92 cells; TPO vs no IL-2 control, comparable to LD IL-2
  pSTAT5 expression: appeared to increase pSTAT5 expression
c-MPL+ NK-92 cells; TPO, 24 hours, no IL-2
  Bcl-2 RMFI: 64.54
  Bcl-xL RMFI: 4.52
c-MPL+ NK-92 cells; cultures supplemented with IL-2 or TPO, 15 minutes
  phospho-p44/42 MAPK expression: No alteration
Raji tumor cells; E:T 1:1
  mean percentage of dead Raji cells: 84%
Raji tumor cells; E:T 10:1
  mean percentage of dead Raji cells: 85%
Parental NK-92 cell line
  expansion of the parental NK-92 cell line: did not alter
GFP+ MPL+ cells; TPO-treated mice
  GFP+ MPL+ cells as percentage of total live cells from each organ, vs GFP+ CD34+ control cells: significantly more
GFP+ MPL+ cells; blood and spleen
  average percentage of GFP+ MPL+ cells amongst the recovered human cells: 15%
GFP+ MPL+ cells; liver and lung
  average percentage of GFP+ MPL+ cells amongst the recovered human cells: 20%
GFP+ c-MPL+ NK cells; TPO plus 10 U/ml LD IL-2
  fold change of GFP+ c-MPL+ NK cells: 24.3 fold
GFP+ c-MPL+ NK cells; TPO+25 U/ml IL-2
  fold change of GFP+ c-MPL+ NK cells: 34.1 fold
c-MPL transduced T cells; D6, TPO alone
  GFP fold-expansion of c-MPL transduced T cells: 5.96 fold
c-MPL transduced T cells; day 6, TPO plus LD IL-2
  GFP fold-expansion of c-MPL+ activated T cells: 11.39 fold
GFP+ MPL+ NK cells; TPO added to 25 U/ml IL-2, 4 days, K562 1:1
  degranulation in GFP+ MPL+ NK cells (CD107a): 83%
GFP+ MPL+ NK cells; TPO added to 25 U/ml IL-2 vs 25 U/ml IL-2 alone, co-cultured with K562
  percent of GFP MPL transduced NK cells that produced IFN-γ or TNF-α: considerably augmented
K562
  killing of K562 tumor targets: no significant killing augmentation
GFP+ MPL+ population
  GFP+ MPL+ population in parallel cultures: 31%
721.221
  killing of 721.221 tumor targets: no significant killing augmentation
